Measured values reported in patent publication US20080167314A1, “Condensed Imidazole Compound And Use Thereof” (priority 2004, published 2008).

Compound	melting point [°C]
Cc1cccc(-c2nc3ccc(Cl)nn3c2-c2ccnc(N)n2)c1 [Example 34, 4-[6-Chloro-2-(3-methylphenyl)imidazo[1,2-b]pyridazin-3-yl]-2-pyrimidinamine]	237 to 238
Cc1ccc(C(=O)Nc2nccc(-c3c(-c4cccc(C)c4)nc4cccnn34)n2)cc1 [Example 44-1, 4-methyl-N-{4-[2-(3-methylphenyl)imidazo[1,2-b]pyridazin-3-yl]pyrimidin-2-yl}benzamide]	211 to 212
Cc1cccc(-c2nc3cccnn3c2-c2ccnc(NC(=O)NC3CCOCC3)c2)c1 [Example 52, N-{4-[2-(3-Methylphenyl)imidazo[1,2-b]pyridazin-3-yl]pyridin-2-yl}-N′-(tetrahydro-2H-pyran-4-yl)urea]	222
COc1cc(Cl)nn2c(-c3ccnc(N)c3)c(-c3ccc(F)c(C)c3)nc12 [Example Compound 36-3, 4-[6-chloro-2-(4-fluoro-3-methylphenyl)-8-methoxyimidazo[1,2-b]pyridazin-3-yl]-2-pyridylamine]	200 to 201
CCN(CC)C(=O)Nc1cc(-c2c(-c3cccc(C)c3)nc3cccnn23)ccn1 [Example Compound 32-1, N,N-diethyl-N′-{4-[2-(3-methylphenyl)imidazo[1,2-b]pyridazin-3-yl]pyridin-2-yl}urea]	166 to 167
CCCNc1cc(-c2c(-c3cccc(C)c3)nc3cccnn23)ccn1 [Example Compound 6-25, 4-[2-(3-methylphenyl)imidazo[1,2-b]pyridazin-3-yl]-N-propylpyridin-2-amine]	128 to 129
Cc1cccc(-c2nc3cccnn3c2-c2ccnc(NC(=O)N3CCc4ccccc4C3)c2)c1 [Example Compound 32-2, N-{4-[2-(3-methylphenyl)imidazo[1,2-b]pyridazin-3-yl]pyridin-2-yl}-3,4-dihydroisoquinoline-2-(1H)carboxamide]	122 to 124
COc1ccc(C(=O)Nc2cc(-c3c(-c4cccc(Cl)c4)nc4cccnn34)ccn2)cc1 [Example Compound 21-3, N-{4-[2-(3-chlorophenyl)imidazo[1,2-b]pyridazin-3-yl]pyridin-2-yl}-4-methoxybenzamide]	223 to 224
CCC(=O)Nc1cc(-c2c(-c3cccc(C)c3)nc3cccnn23)ccn1 [Example Compound 20-9, N-{4-[2-(3-methylphenyl)imidazo[1,2-b]pyridazin-3-yl]pyridin-2-yl}propanamide]	138 to 139
Cc1cccc(-c2nc3ccc(S(C)(=O)=O)nn3c2-c2ccnc(NC3CCCCC3)c2)c1 [Example 11, N-Cyclohexyl-4-[2-(3-methylphenyl)-6-(methylsulfonyl)imidazo[1,2-b]pyridazin-3-yl]pyridin-2-amine]	196 to 197
CCNC(=O)Nc1cc(-c2c(-c3cccc(C)c3)nc3cccnn23)ccn1 [Example Compound 27-4, N-ethyl-N′-(4-[2-(3-methylphenyl)imidazo[1,2-b]pyridazin-3-yl]pyridin-2-yl)urea]	212 to 213
CSc1ccc2nc(-c3ccc(F)c(C)c3)c(-c3ccnc(NC(=O)NC(C)C)c3)n2n1 [Example 54, N-{4-[2-(4-Fluoro-3-methylphenyl)-6-(methylthio)imidazo[1,2-b]pyridazin-3-yl]pyridin-2-yl}-N′-isopropylurea]	241 to 242
COc1ccc2nc(-c3cccc(C)c3)c(-c3ccnc(NC4CCCCC4)c3)n2n1 [Example 9, N-Cyclohexyl-4-[6-methoxy-2-(3-methylphenyl)imidazo[1,2-b]pyridazin-3-yl]pyridin-2-amine]	188 to 189
COCCNc1cc(-c2c(-c3cccc(C)c3)nc3cccnn23)ccn1 [Example Compound 6-13, N-(2-methoxyethyl)-4-[2-(3-methylphenyl)imidazo[1,2-b]pyridazin-3-yl]pyridin-2-amine]	99 to 100
Cc1cc(-c2nc3c(C)cc(Cl)nn3c2-c2ccnc(NC(=O)c3ccc(F)cc3)c2)ccc1F [Example 41-2, N-{4-[6-chloro-2-(4-fluoro-3-methylphenyl)-8-methylimidazo[1,2-b]pyridazin-3-yl]-2-pyridyl}-4-fluorobenzamide]	235 to 236
COc1ccc(C(=O)Nc2cc(-c3c(-c4cccc(C)c4)nc4ccc(Cl)nn34)ccn2)cc1 [Example 18, N-{4-[6-Chloro-2-(3-methylphenyl)imidazo[1,2-b]pyridazin-3-yl]pyridin-2-yl}-4-methoxybenzamide]	204 to 205

Continued, values first:

melting point [°C]	Compound
217 to 218	Cc1cc(-c2nc3cccnn3c2-c2ccnc(NC(=O)c3ccsc3)c2)ccc1F [Example 42-32, N-{4-[2-(4-fluoro-3-methylphenyl)imidazo[1,2-b]pyridazin-3-yl]pyridin-2-yl}thiophene-3-carboxamide]
192 to 193	CCC(=O)Nc1cc(-c2c(-c3cccc(Cl)c3)nc3cccnn23)ccn1 [Example Compound 21-7, N-{4-[2-(3-chlorophenyl)imidazo[1,2-b]pyridazin-3-yl]pyridin-2-yl}propanamide]
233 to 234	Cc1cc(-c2nc3cccnn3c2-c2ccnc(NC(=O)Nc3cccnc3)c2)ccc1F [Example 51-7, N-{4-[2-(4-fluoro-3-methylphenyl)imidazo[1,2-b]pyridazin-3-yl]pyridin-2-yl}-N′-(pyridin-3-yl)urea]
225 to 226	Cc1cc(-c2nc3cccnn3c2-c2ccnc(NC(=O)c3ccc(OC(F)(F)F)cc3)c2)ccc1F [Example 42-14, N-{4-[2-(4-fluoro-3-methylphenyl)imidazo[1,2-b]pyridazin-3-yl]pyridin-2-yl}-4-(trifluoromethoxy)benzamide]
196 to 197	Cc1cc(-c2nc3cccnn3c2-c2ccnc(NC(=O)c3ccc(Cl)cc3C)c2)ccc1F [Example 42-15, 4-chloro-N-{4-[2-(4-fluoro-3-methylphenyl)imidazo[1,2-b]pyridazin-3-yl]pyridin-2-yl}-2-methylbenzamide]
213 to 214	Cc1cc(-c2nc3cccnn3c2-c2ccnc(NC(=O)NCC(C)C)c2)ccc1F [Example 51-3, N-{4-[2-(4-fluoro-3-methylphenyl)imidazo[1,2-b]pyridazin-3-yl]pyridin-2-yl}-N′-isobutylurea]
231 to 232	CCCNC(=O)Nc1cc(-c2c(-c3ccc(F)c(C)c3)nc3cccnn23)ccn1 [Example Compound 28-4, N-{4-[2-(4-fluoro-3-methylphenyl)imidazo[1,2-b]pyridazin-3-yl]pyridin-2-yl}-N′-propylurea]
227 to 228	Cc1cc(-c2nc3cccnn3c2-c2ccnc(NC(=O)CCS(C)(=O)=O)c2)ccc1F [Example 56, N-{4-[2-(4-Fluoro-3-methylphenyl)imidazo[1,2-b]pyridazin-3-yl]pyridin-2-yl}-3-(methylsulfonyl)propanamide]
222 to 223	Cc1cc(-c2nc3cccnn3c2-c2ccnc(NC(=O)NC3CC3)c2)ccc1F [Example 51-1, N-cyclopropyl-N′-{4-[2-(4-fluoro-3-methylphenyl)imidazo[1,2-b]pyridazin-3-yl]pyridin-2-yl}urea]
252 to 254	Cc1cc(-c2nc3cccnn3c2-c2ccnc(NC(=O)c3cncc(Cl)c3)c2)ccc1F [Example 42-28, 5-chloro-N-{4-[2-(4-fluoro-3-methylphenyl)imidazo[1,2-b]pyridazin-3-yl]pyridin-2-yl}nicotinamide]
217 to 218	COc1cc(C(=O)Nc2cc(-c3c(-c4ccc(F)c(C)c4)nc4cccnn34)ccn2)ccc1F [Example 42-11, 4-fluoro-N-{4-[2-(4-fluoro-3-methylphenyl)imidazo[1,2-b]pyridazin-3-yl]pyridin-2-yl}-3-methoxybenzamide]
211 to 212	Cc1cccc(-c2nc3cccnn3c2-c2ccnc(NC(=O)c3ccc(Cl)cc3)c2)c1 [Example Compound 20-3, 4-chloro-N-{4-[2-(3-methylphenyl)imidazo[1,2-b]pyridazin-3-yl]pyridin-2-yl}benzamide]
250 to 251	Cc1cc(-c2nc3cccnn3c2-c2ccnc(NC(=O)c3ccc(Cl)nc3)c2)ccc1F.Cl
229 to 230	Cc1cc(-c2nc3cccnn3c2-c2ccnc(NC(=O)c3cnccn3)c2)ccc1F [Example 42-34, N-{4-[2-(4-fluoro-3-methylphenyl)imidazo[1,2-b]pyridazin-3-yl]pyridin-2-yl}pyrazine-2-carboxamide]
191 to 192	CSc1ccc(C(=O)Nc2cc(-c3c(-c4ccc(F)c(C)c4)nc4cccnn34)ccn2)cc1 [Example 42-9, N-{4-[2-(4-fluoro-3-methylphenyl)imidazo[1,2-b]pyridazin-3-yl]pyridin-2-yl}-4-(methylthio)benzamide]
240 to 241	Cc1cc(-c2nc3cccnn3c2-c2ccnc(NC(=O)CS(C)(=O)=O)c2)ccc1F [Example 57-1, N-{4-[2-(4-fluoro-3-methylphenyl)imidazo[1,2-b]pyridazin-3-yl]pyridin-2-yl}-2-(methylsulfonyl)acetamide]
181 to 183	CCCC(=O)Nc1cc(-c2c(-c3ccc(F)c(C)c3)nc3cccnn23)ccn1 [Example 42-4, N-{4-[2-(4-fluoro-3-methylphenyl)imidazo[1,2-b]pyridazin-3-yl]pyridin-2-yl}butanamide]
229 to 230	Cc1cc(-c2nc3cccnn3c2-c2ccnc(NC(=O)NC3CCCCC3)c2)ccc1F [Example Compound 28-6, N-cyclohexyl-N′-{4-[2-(4-fluoro-3-methylphenyl)imidazo[1,2-b]pyridazin-3-yl]pyridin-2-yl}urea]
234 to 235	Cc1cc(-c2nc3cccnn3c2-c2ccnc(NC(=O)NC(C)(C)C)c2)ccc1F [Example 47-2, N-(tert-butyl)-N′-{4-[2-(4-fluoro-3-methylphenyl)imidazo[1,2-b]pyridazin-3-yl]pyridin-2-yl}urea]
208 to 209	CC(=O)CNC(=O)Nc1cc(-c2c(-c3ccc(F)c(C)c3)nc3cccnn23)ccn1 [Example 63, N-{4-[2-(4-Fluoro-3-methylphenyl)imidazo[1,2-b]pyridazin-3-yl]pyridin-2-yl}-N′-(2-oxopropyl)urea]
